Experimental data: a melting point compilation (Tetko et al.; mined from patent text by program, amines drawn as free bases though some values may be those of a salt)

melting point	SMILES
36 to 37 °C	CCC(C)Nc1c(N)cc(C)c(C)c1[N+](=O)[O-] (centres undefined)
77 °C	COc1ccc(-c2nc(S(C)(=O)=O)ncc2C(=O)N2CCOCC2)cc1OC
257 °C	O=C(O)c1ccc(C=CC(=O)N2CCCCC2)cc1
244 to 246 °C	O=[N+]([O-])c1ccc(Oc2ccc3cc(Oc4ccc([N+](=O)[O-])c(O)c4)ccc3c2)cc1O
172 to 173 °C	COc1ccc(C(=O)Oc2ccc(C(=O)O)cc2C(=O)O)cc1C12CC3CC(CC(C3)C1)C2
97 to 98 °C	CC(C)N(CCON=C1c2ccccc2C2CC2c2ccccc21)C(C)C (centres undefined)
98 to 101 °C	CCC(=O)c1ccc(C(=O)CC)cc1
189 to 191 °C	Fc1c(F)c(-c2c(F)c(F)c(Oc3cccc4ccccc34)c(F)c2F)c(F)c(F)c1Oc1cccc2ccccc12
144 to 145 °C	CNCC1Cc2cc(OC)cc(-c3cc(OC)ccc3OC)c2O1 (centres undefined)
96 to 98 °C	CCC(O)(c1c(C(C)C)nn2ccccc12)C(C)C (centres undefined)
71 to 72 °C	Cc1cc(CCCCCOc2c(Cl)cc(-c3nnc(C)o3)cc2Cl)on1
65 to 67 °C	CC(=O)c1ccc(Oc2ccc(F)cc2)cc1
176 to 178 °C	OCCNCCOc1ccc(C2=C(c3ccccc3)CCCc3cc(O)ccc32)cc1
125 to 126 °C	CCCCC1OC(=O)c2cc(NC(=O)OCC)ccc21 (centres undefined)
174 to 175 °C	N#Cc1c(F)cc2c(c1Cl)N1CCC[C@@H](NC(=O)C(F)(F)F)[C@@H]1c1ccc(F)cc1O2
81.2 to 82 °C	CC(C)(O)COc1ccc(CCCO)c(Oc2ncc(C(F)(F)F)cc2Cl)c1
150 to 152 °C	CCOC(=O)c1ccc(NC(=O)C=C(C)c2ccc(Cl)cc2)cc1
229 to 230 °C	CC(=O)Nc1ccc2c3c(oc2c1)CC(C(=O)O)CC3 (centres undefined)
206 to 208 °C	CC1C(=O)NC2=Nc3ccc(OCCCCC(=O)N(CCO)C4CCCCC4)c(Cl)c3CN21 (centres undefined)
95 to 97 °C	CC(=O)CSc1ccc(S(C)(=O)=O)cc1
98 to 100 °C	O=[N+]([O-])c1cc([N+](=O)[O-])c(OCCO)cc1Cl
159 °C	FC(F)c1cc(-c2ccc(C(F)(F)F)cc2)nc2c(I)ncn12

melting point	SMILES
75 °C	CCCCCCCCCCCCCCCCCC(O)c1cc(C(=O)OCC)ccc1O (centres undefined)
144 to 146 °C	CC(=O)N1c2ccccc2Sc2cc([N+](=O)[O-])ccc21
138 to 141 °C	CCC(C)(C)OC(=O)NC(C)(Cc1c[nH]c2ccccc12)C(=O)NCCc1ccncc1 (centres undefined)
154 to 156 °C	CC(=O)Nc1ccccc1S(N)(=O)=O
131 °C	CCCc1nc(S(C)(=O)=O)c(C(=O)O)n1Cc1ccc(-c2ccccc2S(=O)(=O)NC(=O)NCC)cc1
123 to 130 °C	Oc1cc(C(F)(F)F)nc(C(F)(F)F)c1
143 to 145 °C	C=CCc1ccccc1OC(CC)C(=O)OC1CC(O)C=C2C=CC(C)C(CCC3CC(O)CC(=O)O3)C21 (mixture of isomers)
173 to 175 °C	CCCN(Cc1ccc(-c2ccccc2-c2nc(=O)s[nH]2)cc1)c1nc(C)ncc1C(=O)OCC
142 to 144 °C	O=C(NCc1cccc2ccccc12)C1CCc2[nH]cnc2C1 (centres undefined)
144 to 146 °C	OC(CCn1ccnc1)c1ccc2c(c1)Cc1ccccc1-2 (centres undefined)
136 to 140 °C	Cn1nc2ccccc2c1C(=O)NCCCN1CCC(c2ccc(F)cc2)CC1
175 to 178 °C	O=S(=O)(Nc1ccc(Oc2ccc3cccnc3c2)cc1)c1ccc(F)cc1
205 to 208 °C	O=C(O)Cc1ccc(OCc2ccc(Cl)cc2C(=O)O)cc1
81 to 82 °C	CCOC(=O)C(=C1CCCN1C)c1ccc(OC)cc1
128 to 129 °C	C=CC(=O)OCCOc1ccc(-c2nc(-c3ccc(C)cc3C)nc(-c3ccc(C)cc3C)n2)c(O)c1
172 to 173 °C	COc1ccc2cnc(Nc3ccccc3)nc2c1C(C)C
193 to 195 °C	O=C(NCc1ccc(Cl)cc1)c1cnc2c(F)cc(CCCCCO)cc2c1O
130 to 131 °C	COc1ccc(-c2cc(C(F)(F)F)nn2-c2ccc(S(N)(=O)=O)c(F)c2)cc1
193 to 195 °C	Cc1cc(Sc2ccc3nc(COc4ccc(CC5SC(=O)NC5=O)cc4)n(C)c3n2)cc(C)c1NC(=O)Nc1ccc(C(F)(F)F)cc1 (centres undefined)
120 °C	CS(=O)(=O)N1CC(=O)c2ccsc2C1
156 to 158 °C	CC1(C)C(=O)N(CCN2CCc3c([nH]c4ccccc34)C2)c2ccccc21
195 to 197 °C	CN1CCN(CCCn2c(N)nc3ccccc32)CC1

melting point	SMILES
106 to 108 °C	C=CCc1cc2c(c(CC=C)c1O)CCC(=O)N2CCO
140 to 142 °C	OCC(CCNC1CCC(c2ccc(OCc3ccccc3)cc2)CC1)c1ccccc1 (racemic)
131 to 134 °C	CCOC(=O)CCCOc1ccc([N+](=O)[O-])c(C=C2NC(=O)NC2=O)c1
101 to 102 °C	CC(=O)Nc1ccc(S(=O)(=O)Nc2nnc(CO)s2)cc1
144 to 146 °C	O=C(NC1CCN(Cc2ccccc2)CC1)c1ccccc1OCc1ccnc2ccccc12
84 to 85 °C	CCc1c(OC)cc(C2CN(C)CCC2=O)cc1OC (centres undefined)
142 to 144 °C	C[C@H]1CC[C@H]2C(C)(C)[C@@H](O)[C@@H](OS(=O)(=O)c3ccccc3)C[C@]23Oc2c(c(O)cc4c2CNC4=O)C[C@]13C
321 to 323 °C	CCc1nn(-c2ccc3cc(-c4ccc(-n5cnnc5)cc4)c(=O)oc3c2)nc1C
> 250 °C	O=C(O)Cn1c(=O)c(=O)[nH]c2ccc3ccc(-n4ccc(CN5CC=C(c6ccccc6)CC5)c4)cc3c21
218 to 219 °C	CCc1cncc(-c2nc(C(=O)N(C)C)c3c4ccc(Cl)cc4n(C)c3n2)c1
222 to 225 °C	CCOCCOc1ccc(-c2ccc3c(c2)C=C(C(=O)O)CCN3S(C)(=O)=O)cc1
235 to 236 °C	O=Cc1ccc2oc(-c3ccc4ccc(Cl)cc4n3)cc2c1
139 to 141 °C	CCC(=O)N[C@@H]1CN(C(=O)c2nn(C)c3ccccc23)C[C@@H]1C (relative stereo)
183 to 184 °C	CCCOCCOc1ccc(-c2ccc3c(c2)C=C(C(=O)Nc2ccc(CN(C)C4CCOCC4)cc2)CCS3(=O)=O)cc1Cl
40 to 41 °C	O=C=Nc1c2c(cc3c1CCC3)CCC2
85 to 86 °C	CCOC(=O)/C=C/C=C/c1ccc(OCc2ccccc2)c(OC)c1
117 °C	COc1ccc([N+](=O)[O-])cc1NC(=O)CCCCC1CCSS1 (centres undefined)
95 to 96 °C	CCOC(=O)c1c(C(F)(F)F)nn(-c2c(Cl)cc(Cl)cc2Cl)c1C
105 °C	CC(C)c1ccc(Cn2[nH]c(N)cc2=O)cc1
65 to 67 °C	CC(=NO)C(C)Oc1ccccc1 (centres undefined)

SMILES	melting point
O=C(Oc1ccc2cc(CN3CCCC3)ccc2c1)N1CCC(c2ccc(F)cc2)CC1	106 to 108 °C
CC(NC(=O)NC1N=C(c2ccccc2)c2ccccc2N(C)C1=O)c1ccccc1 (centres undefined)	146 to 150 °C
Cn1cc(C(=O)O)c(=O)c2cc(F)c(N3CCNCC3)cc21	310 °C
COc1ccc(C=Cc2cc(OC)c3c(c2)OCO3)cc1O	145 to 150 °C
CC(C)(C)n1ncc(C(=O)O)c1Cl	132 to 134 °C
